In assay [1] the target is κ-opioid receptor (hKOR-CHO cells) (Homo sapiens, UniProt P41145). Nature of the assay: Opioid receptor binding assay, κ. Particulars: for Ki: [3H]-U69,593, CHO hKOR cells, full binding assay, ±SD; for κ/μ: selectivity ratio Ki κ / Ki μ.
Assay [2] has as its target δ-opioid receptor (hDOR-CHO cells) (Homo sapiens, UniProt P41143). Put plainly: Opioid receptor binding assay, δ. Particulars: for δ~ μ: selectivity ratio Ki δ / Ki μ.
Assay [3] deals with T1, μ-opioid receptor (hMOR-CHO cells) (Homo sapiens, UniProt P35372). Put plainly: biochemical. Format: binding.
The target of assay [4] is T1, μ-opioid receptor (hMOR-CHO cells). Nature of the assay: biochemical.
Assay [5] has the same target. Nature of the assay: Initial binding screen, estimated Ki. Particulars: read-out: estimated Ki (μ).
Where [6] appears, read: read-out: Ki δ, [3H]-DADLE, CHO hDOR cells, full binding assay, ±SD.

Like-named read-outs stand apart in the source and are kept apart here.

Sequence of κ-opioid receptor (hKOR-CHO cells) (P41145 whole entry): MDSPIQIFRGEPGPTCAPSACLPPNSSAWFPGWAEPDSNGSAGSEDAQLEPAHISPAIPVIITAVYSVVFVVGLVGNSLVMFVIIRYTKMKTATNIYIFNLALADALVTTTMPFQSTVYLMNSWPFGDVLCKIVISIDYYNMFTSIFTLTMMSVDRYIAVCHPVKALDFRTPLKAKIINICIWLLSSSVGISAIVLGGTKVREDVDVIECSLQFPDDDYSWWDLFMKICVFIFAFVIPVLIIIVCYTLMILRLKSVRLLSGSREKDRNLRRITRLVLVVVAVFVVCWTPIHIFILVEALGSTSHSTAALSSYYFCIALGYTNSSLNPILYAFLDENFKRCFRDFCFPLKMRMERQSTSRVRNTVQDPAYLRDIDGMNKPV
T1 sequence (P35372 whole entry): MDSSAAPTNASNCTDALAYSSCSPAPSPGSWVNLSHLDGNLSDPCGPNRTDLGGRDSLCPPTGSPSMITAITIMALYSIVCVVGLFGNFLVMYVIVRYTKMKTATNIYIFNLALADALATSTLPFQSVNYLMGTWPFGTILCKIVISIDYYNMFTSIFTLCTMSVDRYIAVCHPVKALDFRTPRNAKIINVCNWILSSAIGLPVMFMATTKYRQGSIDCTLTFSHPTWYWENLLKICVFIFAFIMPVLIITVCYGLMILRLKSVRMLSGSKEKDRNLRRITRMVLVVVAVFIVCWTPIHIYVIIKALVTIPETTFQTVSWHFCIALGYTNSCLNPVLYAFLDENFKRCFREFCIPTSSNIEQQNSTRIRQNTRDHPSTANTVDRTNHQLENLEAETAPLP
Sequence of δ-opioid receptor (hDOR-CHO cells) (P41143 whole entry): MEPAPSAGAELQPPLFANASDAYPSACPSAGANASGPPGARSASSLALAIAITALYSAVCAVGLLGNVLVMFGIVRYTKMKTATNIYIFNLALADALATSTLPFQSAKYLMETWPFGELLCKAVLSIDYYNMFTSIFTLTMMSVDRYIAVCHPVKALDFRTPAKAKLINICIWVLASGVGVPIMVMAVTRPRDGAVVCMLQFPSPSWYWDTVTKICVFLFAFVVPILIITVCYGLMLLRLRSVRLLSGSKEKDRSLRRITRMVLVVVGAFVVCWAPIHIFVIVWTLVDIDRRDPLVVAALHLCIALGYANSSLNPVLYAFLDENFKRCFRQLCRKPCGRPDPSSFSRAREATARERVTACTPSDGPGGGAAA

For the compound “13-phenethyl-2,3,4,9,10,10a-hexahydro-1H-1,4a-(epiminoethano)phenanthrene-8,9β-diol [Compound 13]”, the results for the Ki in assay [1] (read-out: Ki κ) and in assay [2] (setting [6]) were 0.923 ± 0.032 µM and above 10 µM, respectively. In addition, in assay [1], the κ/μ was 5. The “δ~ μ” value in assay [2] came to 56.
For the compound `Oc1ccc2c(c1)C13CCCC(C1C=C2)N(CCc1ccccc1)CC3` (stereo not drawn) [Compound 23, 13-phenethyl-2,3,4,10a-tetrahydro-1H-1,4a-(epiminoethano)phenanthren-6-ol], the Ki in assay [1] (Ki κ) was found to be 0.051 ± 0.004 µM; in assay [3] (Ki μ), 0.0026 ± 0.00035 µM; in assay [2], 0.127 ± 0.031 µM. Further, the κ/μ in assay [1] is 20. In addition, the “δ~ μ” value in assay [2] worked out at 49. Further, the Kb in assay [4] is 0.00034 ± 7e-05 µM.
With “13-methyl-2,3,4,9,10,10a-hexahydro-1H-1,4a-(epiminoethano)-phenanthrene-8,9α-diol [Compound 10]”, the results for the Ki in assay [1] (read-out: Ki κ), in assay [3] (read-out: Ki μ) and in assay [2] (setting [6]) were 2.02 ± 0.169 µM, 0.03 ± 0.006 µM and 3.22 ± 0.332 µM, respectively. In addition, the “δ~ μ” value in assay [2] is given as 107. Also, the “Ke μ” value in assay [4] turned out to be 706 ± 135 nM.
With `CN1CCC23CCCC1C2C=Cc1c(O)cccc13` (stereo not drawn) [Compound 14, 13-methyl-2,3,4,10a-tetrahydro-1H-1,4a-(epiminoethano)phenanthren-8-ol], the results for the Ki in assay [1] (Ki κ), in assay [3] (Ki μ) and in assay [2] were 3.89 ± 0.441 µM, 0.067 ± 0.007 µM and above 10 µM, respectively. The κ/μ in assay [1] amounted to 58. In assay [2], the “δ~ μ” value came out at 149.
Turning to `Oc1cccc2c1C=CC1C3CCCC21CCN3CCc1ccccc1` (stereo not drawn) [Compound 16, 13-phenethyl-2,3,4,10a-tetrahydro-1H-1,4a-(epiminoethano)phenanthren-8-ol], the figures for the inhibitory constant (Ki) in assay [1] (Ki κ), in assay [3] (Ki μ) and in assay [2] were 0.369 ± 0.026 µM, 0.019 ± 0.004 µM and 1.84 ± 0.212 µM, respectively. For the same compound, the κ/μ in assay [1] was found to be 19. In assay [2], the “δ~ μ” value is 97. Besides, the Kb in assay [4] was 0.0017 ± 0.00026 µM.
In the case of `Oc1cccc2c1CCC1C3CCCC21CCN3CCc1ccccc1` (stereo not drawn) [Compound 17, 13-phenethyl-2,3,4,9,10,10a-hexahydro-1H-1,4a-(epiminoethano)phenanthrene-8-ol], the Ki in assay [1] (Ki κ) was determined as 0.873 ± 0.101 µM; in assay [3] (Ki μ), 0.021 ± 0.005 µM; in assay [2], 2.83 ± 0.223 µM. Further, the κ/μ in assay [1] is listed as 42. Besides, in assay [2], the “δ~ μ” value came to 135. In assay [4], this compound returned a Kb of 0.007 ± 0.0018 µM.
Turning to `O=C1CC2C3CCCC2(CCN3CCc2ccccc2)c2cc(O)ccc21` (stereo not drawn) [Compound 18, 6-hydroxy-13-phenethyl-3,4,10,10a-tetrahydro-1H-1,4a-(epiminoethano)phenanthren-9(2H)-one], in assay [5], the potency estimated from few doses is 0.08 µM.
Turning to “13-phenethyl-2,3,4,9,10,10a-hexahydro-1H-1,4a-(epiminoethano)-phenanthrene-8,9α-diol [Compound 12]”, the Ki is 0.525 ± 0.039 µM in assay [1] (read-out: Ki κ), 0.014 ± 0.002 µM in assay [3] (read-out: Ki μ) and above 10 µM in assay [2] (setting [6]). For the same compound, in assay [1], the κ/μ is reported as 38. For the same compound, the “δ~ μ” value in assay [2] amounted to 714. Also, the “Ke μ” value in assay [4] amounted to 6 ± 1 nM.
Turning to `Oc1ccc2c(c1)C13CCCC(C1CC2)N(CCc1ccccc1)CC3` (stereo not drawn) [Compound 24, 13-phenethyl-2,3,4,9,10,10a-hexahydro-1H-1,4a-(epiminoethano)phenanthren-6-ol], the Ki was 0.061 ± 0.006 µM in assay [1] (Ki κ), 0.0023 ± 0.0002 µM in assay [3] (Ki μ) and 0.186 ± 0.025 µM in assay [2]. The κ/μ in assay [1] is 27. In addition, the “δ~ μ” value in assay [2] came to 81. In assay [4], this compound showed a Kb of 0.00071 ± 0.00013 µM.
“13-phenethyl-2,3,4,9,10,10a-hexahydro-1H-1,4a-(epiminoethano)-phenanthrene-6,9α-diol [Compound 22]”: the inhibition constant (Ki) in assay [1] (read-out: Ki κ) was 1.81 ± 0.095 µM; in assay [3] (read-out: Ki μ), 0.072 ± 0.01 µM; in assay [2] (setting [6]) it was above 10 µM. Moreover, in assay [1], the κ/μ is listed as 25. For the same compound, the “δ~ μ” value in assay [2] was 139.
Consider `CN1CCC23CCCC1C2C=Cc1ccc(O)cc13` (stereo not drawn) [Compound 20, 13-methyl-2,3,4,10a-tetrahydro-1H-1,4a-(epiminoethano)phenanthren-6-ol], for which the Ki was 4.04 ± 0.363 µM in assay [1] (Ki κ), 0.057 ± 0.006 µM in assay [3] (Ki μ) and above 10 µM in assay [2]. Moreover, the κ/μ in assay [1] is listed as 71. Besides, the “δ~ μ” value in assay [2] amounted to 175. Moreover, the potency estimated from few doses in assay [5] is 0.067 µM.
`O=C1CC2C3CCCC2(CCN3CCc2ccccc2)c2cccc(O)c21` (stereo not drawn) [Compound 9, 8-hydroxy-13-phenethyl-3,4,10,10a-tetrahydro-1H-1,4a-(epiminoethano)phenanthren-9(2H)-one]: the potency estimated from few doses in assay [5] was 0.297 µM.
